Reference: EP0771801B1, “Chromane derivatives” (AMERICAN HOME PRODUCTS CORPORATION, priority 1995, dated 1997)
Read-outs that look alike come from different tables or passages of the source.

Assays:
dopamine autoreceptor = molecular target: T1, dopamine autoreceptor (Rattus norvegicus, UniProt P61169); assay: Affinity for the dopamine autoreceptor: [3H]-quinpirole binding in homogenized rat striatal brain tissue; details: for IC50: [3H]-quinpirole, rat striatal brain tissue, read-out: IC50 (nM) D2 Quin.; for Ratio antagonist: ratio of D2 Spiper IC50 to D2 Quin. IC50 (LowAg/HighAg, predicts intrinsic activity)
T1 construct: from tissue; host or cells: rat striatal brain tissue homogenate
Method: Affinity for the dopamine autoreceptor was established by a modification of the standard experimental test procedure of Seemen and Schaus, European Journal of Pharmacology 203: 105-109, 1991, wherein homogenized rat striatal brain tissue is incubated with [^3H]-quinpirole (Quin.) at various concentrations of test compound, filtered, washed and counted in a Betaplate scintillation counter.

5-HT1a = molecular target: T2, 5-HT1a (Homo sapiens, UniProt P08908); assay: 5-HT1a binding (method not described)
T2 sequence (P08908 1-422): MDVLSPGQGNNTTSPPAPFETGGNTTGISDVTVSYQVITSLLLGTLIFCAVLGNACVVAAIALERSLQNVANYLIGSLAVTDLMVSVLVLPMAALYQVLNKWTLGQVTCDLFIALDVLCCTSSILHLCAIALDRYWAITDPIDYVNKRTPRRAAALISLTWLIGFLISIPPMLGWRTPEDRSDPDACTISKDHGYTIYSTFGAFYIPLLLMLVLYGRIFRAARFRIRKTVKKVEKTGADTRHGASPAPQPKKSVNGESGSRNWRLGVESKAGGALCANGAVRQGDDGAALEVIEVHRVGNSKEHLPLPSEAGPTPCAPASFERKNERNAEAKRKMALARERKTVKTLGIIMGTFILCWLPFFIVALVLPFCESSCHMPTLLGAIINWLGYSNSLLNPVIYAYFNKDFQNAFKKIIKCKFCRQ

α1 = α1 binding (method not described)

T1 sequence (P61169 whole entry): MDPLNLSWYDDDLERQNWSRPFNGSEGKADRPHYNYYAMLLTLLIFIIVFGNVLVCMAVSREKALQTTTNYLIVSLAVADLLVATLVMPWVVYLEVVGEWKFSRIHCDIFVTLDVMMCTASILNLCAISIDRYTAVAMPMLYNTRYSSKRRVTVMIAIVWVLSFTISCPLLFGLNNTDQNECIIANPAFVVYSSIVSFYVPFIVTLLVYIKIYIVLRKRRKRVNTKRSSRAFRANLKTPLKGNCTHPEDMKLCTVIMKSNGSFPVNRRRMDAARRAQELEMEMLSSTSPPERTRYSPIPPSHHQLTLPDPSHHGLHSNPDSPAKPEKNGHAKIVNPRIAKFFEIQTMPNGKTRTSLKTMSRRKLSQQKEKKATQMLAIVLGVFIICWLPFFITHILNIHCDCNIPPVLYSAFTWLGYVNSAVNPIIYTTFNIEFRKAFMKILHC

Compound	IC50 (dopamine autoreceptor) [nM]	Ratio antagonist (dopamine autoreceptor)	IC50 (5-HT1a; read-out: IC50 (nM) 5-HT1a.) [nM]	IC50 (α1) [nM]	IC50 (5-HT1a; IC50 (nM) 5-HT1a.) [nM]
O=C1Cc2c(ccc3c2OC(CNCc2ccccc2)CC3)N1 (single isomer, unassigned; (+)) [Example 2a, (+)-2-(benzylamino-methyl)-3,4,7,9-tetrhydro-2H-pyrano[2,3-e]indol-8-one]	16.4	45	330	519	–
O=C1Cc2c(ccc3c2OC(CNCc2ccccc2)CC3)N1 (single isomer, unassigned; (-)) [Example 2b, (-)-2-(benzylamino-methyl)-3,4,7,9-tetrhydro-2H-pyrano[2,3-e]indol-8-one]	0.27	265	17.1	330	–
O=C1Cc2c(ccc3c2OC(CNCc2ccccc2)CC3)N1 (centres unmarked) [Example 1a, 2-(Benzylamino-methyl)-3,4,7,9-tetrahydro-2H-pyrano-[2,3-e]indol-8-one]	0.73	194	34	244	–
O=C1Cc2c(ccc3c2OC(CNCc2ccc(F)cc2)CC3)N1 (centres unmarked) [Example 1b, 2-(4-Fluoro-benzylamino-methyl)-3,4,7,9-tetrahydro-2H-pyrano[2,3-e]indol-8-one]	0.83	375	16	352	–
COc1ccc(CNCC2CCc3ccc4c(c3O2)CC(=O)N4)cc1 (centres unmarked) [Example 1c, 2-(4-Methoxy-benzylamino-methyl)-3,4,7,9-tetrahydro-2H-pyrano[2,3-e]indol-8-one]	0.96	307	38	258	–
Cc1ccc(CNCC2CCc3ccc4c(c3O2)CC(=O)N4)cc1 (centres unmarked) [Example 1d, 2-(4-Methyl-benzylamino-methyl)-3,4,7,9-tetrahydro-2H-pyrano[2,3-e]indol-8-one]	0.45	229	10	194	–
O=C1Cc2c(ccc3c2OC(CNCc2ccc(Cl)cc2)CC3)N1 (centres unmarked) [Example 1e, 2-(4-Chloro-benzylamino-methyl)-3,4,7,9-tetrahydro-2H-pyrano[2,3-e]indol-8-one]	0.64	233	7.53	184	–
Cc1ccc(CNCC2CCc3ccc4c(c3O2)CC(=O)N4)c(C)c1 (centres unmarked) [Example 1f, 2-(2,4-Dimethyl-benzylamino-methyl)-3,4,7,9-tetrahydo-2H-pyrano[2,3-e]indol-8-one]	2.62	150	–	81	15
